The source of these data is patent publication US7553826B2, “Cytarabine monophosphate prodrugs” (Metabasis Therapeutics, Inc., priority 2002, dated 2009).

Series [1] is described as follows: Liver araCTP and liver targeting with continuous i.v. infusion in rats. From the text: A saline filled blunt PE-50 tubing catheter (Intramedic, Becton Dickinson, Sparks, Md.) was inserted into the jugular vein, exteriorized between the scapulae and connected to a swivel-tethering constant infusion system (Lomir Biomedical, Inc., Malone, N.Y. and Harvard Apparatus, Inc., South Natick, Mass.). The tubing was filled with heparinized saline and sealed, and the animals allowed to recover for one to seven days.
After the various durations of infusion the animals were anesthetized by intra-catheter injections of the anesthetic mix described above. Blood samples were obtained via cardiac puncture using a 23-gauge needle attached to a heparin coated 3 cc syringe.
(§1) In those studies, liver, plasma and bone marrow samples were obtained at necropsy to evaluate liver targeting.
(§2) Results are expressed as mean±standard error of the mean. When appropriate, AUC was calculated from time zero to the last time-point of the study. Liver targeting indices (LTIs) were calculated by dividing the liver araCTP AUC by the AUC for plasma araC (plasma LTI) or by the AUC for bone marrow araCTP (bone marrow LTI) for each compound. For the continuous infusion studies, the steady state araCTP levels were divided by the steady state plasma araC levels.

Series [2] is described as follows: Single dose i.p. bolus liver levels / liver targeting in mice. How it is done:
At specified times post injection, mice were anesthetized and exsanguinated via cardiac puncture. The whole liver was removed, and snap-frozen in liquid nitrogen, and homogenized using a Polytron homogenizer PT 10/35 (Brinkmann Instruments, Westbury, N.Y.) in 3 volumes of 10% (v/v) perchloric acid (PCA). After a 5 min centrifugation at 2,500×g, 1 mL of supernatant was neutralized using 0.3 mL 3 M KOH/3 M KHCO3 and mixed thoroughly. Samples were then centrifuged for 5 minutes and resulting supernatants were treated with periodate in order to remove endogenous ribonucleotides which otherwise might interfere with araCTP detection. […] Resulting samples were analyzed by HPLC as described below.
To measure bone marrow araCTP, the bone marrow samples were flushed from the marrow cavities of femurs with 1.2 ml saline into pre-weighed Eppendorf tubes. After centrifugation for 20-30 seconds (Eppendorf microfuge, 14,000 rpm) and removal of the supernatant, 12 volumes of 3% PCA (v/v) were added to the bone marrow cell pellets. Samples were then vortexed until the pellet was well dissolved and centrifuged as above for 10 min. Ninety μL of extracted supernatant was neutralized to pH 7-8 using 30 μL 1 M KOH/1 M KHCO3 and again centrifuged. Resulting supernatants were periodate-treated as above.
Samples (50 μL) were injected onto the column in 70% 10 mM ammonium phosphate buffer and 30% 1 M ammonium phosphate buffer, both at pH 3.5 and containing 6% ethanol. […] A standard curve was prepared by adding known amounts of araCTP into PCA extracts from control liver or bone marrow prior to neutralizing, and preparing HPLC samples accordingly.
To obtain plasma, blood was transferred to heparinized micro-collection tubes and centrifuged in an Eppendorf microfuge at 14,000 rpm for 2 minutes. Resulting plasma was collected, placed on dry ice, and subsequently stored at −20° C. On the day of analysis, proteins were precipitated by adding 1 mL acetonitrile to 100 μL of plasma. After 10 min centrifugation (Eppendorf microfuge, 14,000 rpm), the supernatant was removed and dried in a Savant SpeedVac Plus SC110A. Samples were reconstituted with 110 μL of mobile phase buffer (20 mM KH2PO4, pH 4.5), sonicated for 5 min, and centrifuged for 30 seconds. […] AraC and prodrugs were detected by absorbance at 280 nm and quantitated using standard curves obtained with spiked plasma samples processed as above.
Results are expressed as mean±standard error of the mean. Data were analyzed by repeated measures ANOVA, followed by the Tukey HSD post-hoc test for comparisons at individual time points when appropriate. A p-value of less than 0.05 was considered statistically significant. Dotted lines in figures indicate LOQ (limit of quantitation) using the indicated HPLC method.
as §1, §2

Series [3] can be described thus: Mouse 5-day safety pharmacology. It is filed as in vivo. The settings on record: mice. How it is done:
AraC was purchased from Sigma Chemical Co. (St. Louis, Mo., catalog # C1768, lot # 39H5962). Compound C and araC were dissolved in sterile physiological saline. Stock solutions were prepared daily from pre-weighed drug. All but the highest concentrations were prepared by diluting the stock solutions using additional sterile saline. Any drug not used immediately was refrigerated and used within 24 hours. All prodrugs were dosed in cytarabine molar equivalents (CE).
Male NIH Swiss Webster mice (25 to 33 g body weight, Harlan Sprague Dawley, Indianapolis, Ind.) were injected i.p. with Compound C, araC or vehicle once a day on days 0-4, approximately 3 to 4 hours following the beginning of the vivarium light cycle. Doses for Compound C were 1000, 300, 100 and 30-mg/kg nucleoside equivalents/day (equal to 1848, 554, 185 and 55.4 mg/kg/day) whereas araC was administered at 100, 30, 10 and 3 mg/kg/day. The vehicle was saline. Body weights were recorded on days 0-4 immediately prior to compound administration and on day 5 prior to sacrifice. All mice were sacrificed on day 5 (23-25 hours following the last i.p. dose) by exsanguination under halothane anesthesia, and subsequent cervical dislocation. The blood from each animal was analyzed for blood chemistry and hematology parameters as described in Example H. Livers were excised and fixed in neutral-buffered 10% formalin, and bone marrow was flushed from the right femur using 1 ml PBS without calcium or magnesium and nucleated cell counts measured as in Example H.
EDTA-treated blood samples were submitted to LabCorp (LabCorp, San Diego, Calif.) for hematology analysis including erythrocyte and platelet numbers, hemoglobin, and hematocrit. Serum chemistry analysis was also performed by LabCorp. Tissue specimens from mice treated with vehicle or 100 mg/kg araC or 1000 mg/kg CE Compound C were coded and shipped in formalin to Comparative Biosciences (Mountain View, Calif.) for preparation of hematoxylin/eosin-stained tissue sections and histopathology evaluation. Specimen codes for the histopathology studies were: #1-7, Compound C 1000 mg/kg/day; #33-40, araC 100 mg/kg/day; #65-72, Saline vehicle.
Results are expressed as mean±standard error for 5-8 animals per dose group. For selected hematology parameters, data for each animal were also presented as a % of the mean of the vehicle group. Statistical analysis was performed by one-way ANOVA followed by Dunnett's post-hoc test for differences between a control group and multiple dose groups. A p-value of less than 0.05 was considered statistically significant.

The next series has as its system human liver microsomes. Nature of the series: Enzyme kinetics of prodrug activation to araCMP in human liver microsomes. The conditions noted are these: activation to araCMP. On the technique in general: Microsomes from liver hold many membrane-bound enzymes, among them those of drug oxidation.
The nature of the next series: Solubility. Type of series: physicochemical. How it is done: With each of the three buffer systems, saturating solutions of Compound A and Compound B were prepared as follows. […] The resultant vials were sealed and equilibrated by tumbling at 25° C. for a minimum of 24 h. At the end of the incubation period, prodrug that was not in solution was removed from the samples by filtration through a 0.45 μm pore size nylon syringe filter. These diluted samples were assayed by the HPLC method of example E.

A short description of a further series: Aqueous stability. Type of series: physicochemical. The settings on record: 50 μM. How it is done: Diluted solutions (50 μM) were incubated at 37° C. in a Fisher Scientific dry bath incubator (catalog # 11-718-2) with samples collected every 24 hours and stored at −80° C. Plasma samples (100 μL) were quenched with 1 mL of acetonitrile. […] Samples were resuspended in 120 μL of mobile phase buffer before HPLC injection.
Samples were analyzed on an HP1090 or HP1100 (Hewlett Packard) HPLC using a C-18 Alltech Econosphere column, 150 mm×4.6 mm (catalog # 70065), with a C-18 Alltech Econosphere guard column, 7.5 mm×4.6 mm (catalog # 96121). Samples were eluted with a methanol gradient: 0% for 5 minutes, then increasing to 10% at 10 minutes, 30% at 20 minutes, and 60% at 25 minutes. The column was allowed to equilibrate in 0% methanol for 10 minutes before the next injection. The flow rate was 1 mL/minute with a column temperature of 40° C. Prodrugs eluted around 19.5 minutes and were monitored by UV absorbance at 280 nm. For prodrugs in aqueous conditions, the same method was employed except the methanol gradient was as follows: 0% for 5 minutes, increasing to 10% at 10 minutes, and 30% at 20 minutes with prodrug eluting around 20 minutes.

Setting [4] is: rats, 200 mg CE/kg/day continuous intravenous infusion.

Values after ≈ are worked out from the molar mass of the structure shown. Bounds are passed on as bounds.

As a reminder, the AUC(0-t) is exposure summed from dosing to a finite time, without extrapolation to infinity. As to `Nc1ccn([C@@H]2O[C@H](CO)[C@@H](O)[C@@H]2O)c(=O)n1` [AraC, 1-(β-D-Arabinofuranosyl)cytosine], in series [1] (rats, AraC at 2000 mg/kg/day continuous infusion), the “Plasma araC steady state” value was roughly 300 µM. The area under the curve AUC(0-t) in series [2] (male, Swiss Webster, mouse, plasma, ip, 100 mg (cytarabine equivalents)/kg) came out at 121 µM·h. Moreover, the “histopathology of liver, kidney and small intestine” value in series [3] (100 mg/kg araC or 1000 mg/kg CE Compound C) is “no toxicologically relevant histopathologic changes”. Further, in series [3] (5-day repeated dose), the hepatotoxicity result is given as “No hepatotoxicity was observed”. Further, in series [3] (30 and 100 mg/kg/day i.p. for 5 days), the “number of nucleated bone marrow cells, circulating PMNs, mononuclear cells, and platelets” value was “significantly decreased”. Also, in series [3] (5 days i.p., araC 30 and 100 mg/kg/day), the “red blood cell parameters (erythrocyte numbers, hematocrit, hemoglobin)” value is “lowered erythrocyte numbers, hematocrit, and hemoglobin significantly”. The Creatinine result in series [3] (araC 100 mg/kg/day) is on record as “lowered”. Moreover, in series [3] (araC 100 mg/kg/day i.p. for 5 days), the “bone-marrow cellularity, % of that in vehicle-treated animals” value was 11%. Besides, the “effect on body weight” value in series [3] (daily i.p. 5 days, highest dose: araC 100 mg/kg/day, Compound C 1000 mg/kg/day of nucleoside equivalents) is “progressive and statistically significant drop in body weight”. In addition, the Alkaline phosphatase entry in series [3] (highest dose of araC (100 mg/kg/day)) was “significantly decreased”. In addition, the Glucose entry in series [3] (araC 30 and 100 mg/kg/day, Compound C 1000 mg/kg/day) is recorded as “lowered”.
In general, Vmax refers to the rate approached at saturating substrate. Broadly, the Km is the concentration of substrate that gives half-maximal velocity. In general, solubility refers to the concentration that dissolves in the medium under given conditions. Read a low solubility as little dissolved substance. Take `Nc1ccn([C@@H]2O[C@H](CO[P@]3(=O)OCC[C@H](c4ccncc4)O3)[C@@H](O)[C@@H]2O)c(=O)n1` [Compound B, 2(1H)-Pyrimidinone, 4-amino-1-[5-O-[(2S,4R)-2-oxido-4-(4-pyridinyl)-1,3,2-dioxaphosphorinan-2-yl]-β-D-arabinofuranosyl]]: the “reduction of peripheral exposure (liver targeting)” value in series [1] (administered by continuous intravenous infusion) is reported as roughly 10 fold. In series [1] (setting [4]), the “LTI @ 24 hrs (Liver/plasma)” value is on record as greater than 12 nmol/g/μM, the “Liver araCTP 24 hr” value came out at 5.9 nmol/g, the “Liver araCTP @ 4 hr” value came to 6.4 nmol/g and the “Plasma Prodrug steady state” value lay within 25 to 35 µM. Moreover, the “Plasma araC steady state” value in series [1] (setting [4]) was less than 0.5 µM. In addition, in series [1] (rats, continuous infusion 200 mg/kg/24 hours CE), the “liver araCTP compared with Compound A” value is “less araCTP in the liver than Compound A”. Besides, the “Liver araCTP Peak @ 1 hr” value in series [2] (Mouse, 100 mg (cytarabine equivalents)/kg single IP injection) amounted to 27 nmol/g. Further, the “LTI (Liver/plasma)” value in series [2] (Mouse, 100 mg CE/kg single IP, liver araCTP AUC / plasma araC AUC) is given as 19.6 nmol/g/μM. In addition, the “reduction of peripheral exposure (liver targeting)” value in series [2] (administered intraperitoneally) is on record as roughly 20 fold. Further, in series [2] (mice, single i.p. bolus, 100 mg/kg CE), the “liver araCTP peak at 60 minutes post injection” value turned out to be 27.00 ± 4.04 nmol/g. For the same compound, the Vmax with human liver microsomes (2 mg/mL human liver microsomes lot RQX, 1 mM NADPH, pH 7.4, 37° C, 5 min) is 0.13 ± 0.02 nmol/min/mg. The Michaelis-Menten constant (Km) in the series on human liver microsomes (human liver microsomes lot RQX) was determined as 3.13 ± 0.51 mM. The solubility in the series “Solubility” (0.5 M Pi pH 8.0 buffer, 25° C) came to 10.2 mg/mL (≈ 23.2 mM). For the same compound, the solubility in the series “Solubility” (0.5 M citrate pH 4.0, 25° C) turned out to be 94.6 mg/mL (≈ 215 mM). This compound yielded a solubility in the series “Solubility” (0.5 M citrate pH 7.0, 25° C) of 9.0 mg/mL (≈ 20.4 mM). Besides, the “t90 in aqueous solution” value in the series “Aqueous stability” (100 mM Pi, pH 7.4, 37° C) was 4 days. Further, in the series “Aqueous stability” (100 mM citrate, pH5.0, 37° C), the “t90 in aqueous solution” value is on record as 1.7 days.
